For one data set, the system named is Pasteurella piscicida. The data set can be described thus: microbe, parasite or virus in culture. It is filed as cell-based. To be noted: Photobacterium damselae.
Data set [1] in a line: Storage life of kamaboko, rot-proof property (Test Example 4). To be noted: 0.2%, pH 6.58, 30° C.
Procedure: Fish paste was prepared by adding NaCl (2.5%), chemical seasoning (0.8%), starch (5%) and ice water (10%) based on frozen surimi of walleye pollack (4 kg) and cutting by a silent cutter for 10 minutes. Predetermined amount of bacterial substance UFC-N11 based on the resulting fish paste (2 kg) was added and completely mixed in a small mixer for 5 minutes. About 100 g fish paste were enclosed with polyvinylidene chloride film (spread width:45 mm), boiled at 90° C. for 30 minutes, quenched, left overnight and then tested for rot-proof property.
The test was conducted as follows. As the complete package products, 10 pieces/group of kamaboko processed by casing method samples and, as the simplified package products, 10 pieces/group prepared by peeling off the casing under sterilized condition, cutting into 2 round slices (thickness: 10 mm) by a sterilized knife and placing in a sterilized plastic Petri dish. were placed in a thermostatic chamber at 30° C. and evaluated by macroscopically observation. The evaluation uses five-level scale shown below. The period until the average evaluation value of 1 is attained is defined as the storage life.
In data set [2] the test system is Xanthomonas campestris PV citri.

Values after ≈ are worked out from the molar mass of the structure shown.

From US4868203A, “Bacterial substance and pharmaceutical composition thereof” (Kabushikikaisha Ueno Seiyaku Oyo Kenkyujo, priority 1986, dated 1989) come the findings set out here.

As to `O=C(O)c1ccc(/C=C/c2ccc([N+](=O)[O-])o2)cc1` [Nifurstyrenic acid], the MIC in the data set with Pasteurella piscicida (strain AT-1) amounted to 1.25 µg/mL (≈ 4.82 µM); with Pasteurella piscicida (strain AT-17), 0.31 µg/mL (≈ 1.2 µM); against Pasteurella piscicida (strain KGP86041) it was 2.5 µg/mL (≈ 9.64 µM); in the data set on Pasteurella piscicida (strain MEP35) it was 2.5 µg/mL (≈ 9.64 µM); against Pasteurella piscicida (strain MEP151), 0.31 µg/mL (≈ 1.2 µM); in the data set on Pasteurella piscicida (strain MS86115), 0.31 µg/mL (≈ 1.2 µM). Further, the MIC in the data set with Pasteurella piscicida (strain MS86169) was 2.5 µg/mL (≈ 9.64 µM); against Pasteurella piscicida (strain SP6275) it was 0.63 µg/mL (≈ 2.43 µM); with Pasteurella piscicida (strain SP6291) it was 0.16 µg/mL (≈ 0.617 µM); in the data set on Pasteurella piscicida (strain WP96), 0.31 µg/mL (≈ 1.2 µM).
In the case of `C/C=C/C=C/C(=O)O` [Sorbic acid, reference compound], in data set [1], the “Storage life, Complete package” value is 12.0 days and the “Storage life, simplified package” value was 7.0 days.
On to `CC1(C)S[C@@H]2[C@H](NC(=O)[C@H](N)c3ccccc3)C(=O)N2[C@H]1C(=O)O` [Ampicillin], for which the MIC with Pasteurella piscicida (strain AT-1) is > 10 µg/mL; in the data set on Pasteurella piscicida (strain AT-17) it was > 10 µg/mL; against Pasteurella piscicida (strain KGP86041) it was 0.039 µg/mL (≈ 0.112 µM); with Pasteurella piscicida (strain MEP35) it was 0.039 µg/mL (≈ 0.112 µM); against Pasteurella piscicida (strain MEP151), > 10 µg/mL; against Pasteurella piscicida (strain MS86115), 0.039 µg/mL (≈ 0.112 µM). Further, the MIC is > 10 µg/mL against Pasteurella piscicida (strain MS86169), 0.039 µg/mL (≈ 0.112 µM) in the data set on Pasteurella piscicida (strain SP6275), > 10 µg/mL against Pasteurella piscicida (strain SP6291) and 0.078 µg/mL (≈ 0.223 µM) with Pasteurella piscicida (strain WP96).
In the case of `CCn1cc(C(=O)O)c(=O)c2cc3c(cc21)OCO3` [Oxolinic acid], the MIC worked out at 1.25 µg/mL (≈ 4.79 µM) in the data set with Pasteurella piscicida (strain AT-1); 1.25 µg/mL (≈ 4.79 µM) against Pasteurella piscicida (strain AT-17); 0.078 µg/mL (≈ 0.299 µM) against Pasteurella piscicida (strain KGP86041); 1.25 µg/mL (≈ 4.79 µM) against Pasteurella piscicida (strain MEP35); 1.25 µg/mL (≈ 4.79 µM) in the data set with Pasteurella piscicida (strain MEP151); 1.25 µg/mL (≈ 4.79 µM) in the data set on Pasteurella piscicida (strain MS86115). For the same compound, the MIC with Pasteurella piscicida (strain MS86169) worked out at 0.078 µg/mL (≈ 0.299 µM); with Pasteurella piscicida (strain SP6275), 1.25 µg/mL (≈ 4.79 µM); against Pasteurella piscicida (strain SP6291) it was 0.039 µg/mL (≈ 0.149 µM); in the data set on Pasteurella piscicida (strain WP96) it was 0.039 µg/mL (≈ 0.149 µM).
Compound `[H]/N=C(/N)N[C@H]1[C@H](O)[C@@H](O)[C@H](O[C@@H]2O[C@@H](C)[C@](O)(C=O)[C@H]2O[C@@H]2O[C@@H](CO)[C@H](O)[C@@H](O)[C@@H]2NC)[C@@H](N/C(N)=N\[H])[C@@H]1O` [Streptomycin, reference compound] returned a Prevention in data set [2] (Streptomycin, concentration printed as 0 ppm, 14 days) of 30.3%. Also, the Damage entry in data set [2] (in vivo) is “nil”.
